Results published in patent publication US20140335474A1, “FLOSS DEVICE, A METHOD OF FORMING THE FLOSS DEVICE AND A METHOD OF USING THE FLOSS DEVICE” (priority 2008, published 2014).

System: E. Coli (strain DH5α)
Experiment: Testing of antimicrobial RXPIX: bacterial viability by turbidity of LB Broth
Format: cell-based
Details: 15 minutes fluid exchange at room temperature, then 2 ml LB Broth, 20 hours at 37° C., three replicates
Method: For each sample three replicate experiments were preformed. Briefly, a drop of the bacterium E. Coli (strain DH5α) was mixed with a small amount of a medium (Luria-Bertani Broth, or LB Broth) and allowed to exchange fluid with the floss device 10, which is named “RXPIX” for identification purposes in the following tests, for 15 minutes. After this period of time, 2 ml of LB Broth was added to each test tube and the bacteria were allowed to grow for 20 hours at 37° C. Observing the turbidity of the broth at this time assessed bacterial viability. Bacterial viability was also assessed analytically by measuring the absorbance of visible light (600 nm).
B. On Day 2, 1 micro liter of E. Coli cells was transferred to each 12×75 mm round bottom test tube for antimicrobial testing. In addition, 5 micro liters of fresh LB Broth were added to each test tube to allow for fluid exchange. […]
D. After 20 hours of incubation, bacterial viability was assessed. […]
E. To further characterize bacterial growth, the absorbance of 600 nm visible light was used to analytically measure turbidity. The broth from each sample was measured with a spectrophotometer equipped with a lamp emitting visible light.

CCO [70% ethanol, ethanol]
bacterial growth (turbidity of the LB Broth): no bacterial growth
bacterial growth (turbidity of the LB Broth) (listed as 70% ethyl alcohol): not showing bacterial growth
